Test results as given in PMC10451629, “Evaluation of the Effects of Heteroaryl Ethylene Molecules in Combination with Antibiotics: A Preliminary Study on Control Strains” (Antibiotics, 2023).
pIC50: −log10 of the molar value. Converted amounts (≈) assume the structure as drawn. “And” between values parts separate entries of the source, which are not always exact repeats. Equal entries are not always repeated. Where two headings read alike, the source gives them in different places.

Legend:
Gram-positive strains = test: Broth microdilution MIC, summary over Gram-positive strains; type: cell-based
Gram-negative bacteria = test: Broth microdilution MIC, summary over Gram-negative bacteria; type: cell-based; conditions: summary in text over Gram-negative bacteria
A. baumannii ATCC 17978 = test: Broth microdilution MIC; type: cell-based; conditions: Acinetobacter baumannii, ATCC17978, substance alone
S. enterica ATCC 14028 = test: Broth microdilution MIC; type: cell-based; conditions: Salmonella enterica, ATCC14028, substance alone
S. aureus ATCC 12598 = test: Broth microdilution MIC; type: cell-based, Staphylococcus aureus; conditions: Staphylococcus aureus, ATCC12598, S. aureus ATCC 12598; substance alone; read-out: MIC
P. aeruginosa ATCC 27853 [1] = test: Broth microdilution MIC; type: cell-based, Pseudomonas aeruginosa; conditions: for MIC: Pseudomonas aeruginosa, ATCC27853, P. aeruginosa ATCC 27853
[2] = test system: S. aureus ATCC BAA-1556 USA300; test: Broth microdilution MIC; type: cell-based, Staphylococcus aureus; conditions: Staphylococcus aureus, S. aureus ATCC BAA-1556 USA300; substance alone
[3] = test system: CaCo-2 (ATCC HTB-37) colon–rectal cancer cell line; test: MTT cytotoxicity assay on CaCo-2 cells; type: cell-based, human; conditions: for pIC50: Homo sapiens; for Percentage of cell growth, antibiotic / Percentage of cell growth, antibiotic + PB4 0.2 µM: CaCo-2
Protocol: To fully assess the biological activity of the new molecules, they were tested at different concentrations on the CaCo-2 (ATCC HTB-37) colon–rectal cancer cell line. These human cancer cells were exposed to compound solutions ranging in concentration from 100 µM to 0.01 µM. As a reference compound for these assays, we used 5-Fluorouracil (5-FU), a pyrimidine analog from the antimetabolite family.
The MTT assay was also performed for the selected antibiotics to evaluate the effect of their combined treatment with PB4.
To evaluate the effect of the heteroaryl ethylene compounds and the antibiotics, an MTT ([3-(4,5-dimethylthiazol-2-yl)-2,5-diphenyltetrazolium bromide]) assay was performed as previously described. […] Both concentrations were also tested in combination with PB4 0.2 µM. All antibiotics were provided by Thermo Scientific^TM Oxoid^TM, Basingstoke, UK. Twenty-four hours after plating, the cells were treated with 20 μL of each solution. Untreated cells were used as controls. […] The IC50 values were calculated by nonlinear regression analysis using GraphPad Prism 6.0 software.

S. aureus ATCC 29213 [4] = test: Broth microdilution MIC; type: cell-based; conditions: Staphylococcus aureus, ATCC29213, S. aureus ATCC 29213
E. coli ATCC 25922 [5] = test: Broth microdilution MIC; type: cell-based; conditions: Escherichia coli
[6] = test system: K. pneumoniae ATCC 700603; test: Broth microdilution MIC; type: cell-based, Klebsiella pneumoniae; conditions: for MIC: Klebsiella pneumoniae, ATCC700603, K. pneumoniae ATCC 700603, substance alone, read-out: MIC
E. faecalis ATCC 29212 [7] = test: Broth microdilution MIC; type: cell-based, Enterococcus faecalis; conditions: for MIC: Enterococcus faecalis, ATCC29212, E. faecalis ATCC 29212
E. faecalis ATCC 29212 [8] = test system: E. faecalis ATCC 29212; parameters: method as in earlier work; conditions: quality control range, ref CLSI; cited from earlier work
S. aureus ATCC 29213 [9] = test system: S. aureus ATCC 29213; parameters: method as in earlier work; conditions: quality control range, ref CLSI; cited from earlier work
E. coli ATCC 25922 [10] = test system: E. coli ATCC 25922; parameters: method as in earlier work; conditions: quality control range, ref CLSI; cited from earlier work
P. aeruginosa ATCC 27853 [11] = test system: P. aeruginosa ATCC 27853; parameters: method as in earlier work; conditions: quality control range, ref CLSI; cited from earlier work
all tested strains = test: Broth microdilution MIC, summary over all tested strains; type: cell-based; conditions: all tested bacterial strains; antibiotic + PB4
[12] = Caco-2, 24 h, CaCo-2 cell line, MTT, 24 h of treatment, read-out: IC50 at 24 h
[13] = Caco-2, 48 h, CaCo-2 cell line, MTT, 48 h of treatment, read-out: IC50 at 48 h
[14] = ATCC25922, substance alone, read-out: MIC
[15] = quality control strain, technical positive control, read-out: MIC (quality control)

Compound | MIC (Gram-positive strains) [µg/mL] | MIC (A. baumannii ATCC 17978) | MIC (S. enterica ATCC 14028) | MIC (S. aureus ATCC 12598) | MIC (P. aeruginosa ATCC 27853 [1]; substance alone, read-out: MIC) | MIC [2] | pIC50 [3, 12] | pIC50 [3, 13] | MIC (S. aureus ATCC 29213 [4]; substance alone, read-out: MIC) | MIC (E. coli ATCC 25922 [5]; [14]) | MIC [6] | MIC (E. faecalis ATCC 29212 [7]; substance alone, read-out: MIC) | also measured
C[n+]1c(/C=C/c2ccc(-c3cccs3)s2)cccc1/C=C/c1ccc(-c2cccs2)s1 [GC-VI-70] | 2 to 16 | 32 µg/mL and 53.2 µM | > 128 µg/mL and > 213 µM | 16 µg/mL and 26.6 µM | > 128 µg/mL and > 213 µM | 4 µg/mL and 6.65 µM | 6.03 | 5.42 | 16 µg/mL and 26.6 µM | 128 µg/mL and 213 µM | > 128 µg/mL and > 213 µM | 2 µg/mL and 3.32 µM | MIC values for Gram-negative bacteria (Gram-negative bacteria): high MIC values; pIC50 ([3]; Caco-2, CaCo-2 cells, time not given, read-out: IC50 value on CaCo-2 cells): 6.49
CN(C)c1ccc(/C=C/C=C/c2ccc3ccccc3[n+]2C)cc1 [GC-VII-50] | 0.25 to 8 | 16 µg/mL and 37.2 µM | > 128 µg/mL and > 297 µM | 0.25 µg/mL and 0.5 µM | > 128 µg/mL and > 297 µM | 2 µg/mL and 4.6 µM | 6.77 | 7.15 | 0.5 µg/mL and 1.1 µM | 64 µg/mL and 149 µM | > 128 µg/mL and > 297 µM | 8 µg/mL and 18.5 µM | 
CNC(C)C1CCC(N)C(OC2C(N)CC(N)C(OC3OCC(C)(O)C(NC)C3O)C2O)O1 (stereo not drawn) [Gentamicin, gentamicin, reference compound] |  | 2 µg/mL (≈ 4.19 µM) | 1 µg/mL (≈ 2.09 µM) | 0.5 µg/mL (≈ 1.05 µM) | 2 µg/mL (≈ 4.19 µM) | 0.5 µg/mL (≈ 1.05 µM) |  |  | 0.5 µg/mL (≈ 1.05 µM) | 0.5 µg/mL (≈ 1.05 µM) | 8 µg/mL (≈ 16.8 µM) | 4 µg/mL (≈ 8.38 µM) | MIC CLSI Range (E. faecalis ATCC 29212 [8]): 4 to 16 µg/mL; MIC CLSI Range (S. aureus ATCC 29213 [9]): 0.125 to 1 µg/mL; MIC CLSI Range (E. coli ATCC 25922 [10]): 0.25 to 1 µg/mL; Reduction of antibiotic MIC by PB4 (P. aeruginosa ATCC 27853 [1]; P. aeruginosa ATCC 27853, antibiotic + PB4 vs antibiotic alone): 2 -fold log MIC reductions; MIC (P. aeruginosa ATCC 27853 [1]; [15]): 2 µg/mL (≈ 4.19 µM); Percentage of cell growth, antibiotic ([3]; antibiotic alone at MIC for E. faecalis ATCC 29212, 24 h): 158.2%; Percentage of cell growth, antibiotic ([3]; antibiotic alone at MIC for E. faecalis ATCC 29212, 48 h): 247.5%; Percentage of cell growth, antibiotic ([3]; antibiotic alone at sub-MIC (half-MIC), 24 h): 132.3%; Percentage of cell growth, antibiotic ([3]; antibiotic alone at sub-MIC (half-MIC), 48 h): 271.7%; Percentage of cell growth, antibiotic + PB4 0.2 µM ([3]; antibiotic at MIC + PB4 0.2 µM, 24 h): 125.6%; Percentage of cell growth, antibiotic + PB4 0.2 µM ([3]; antibiotic at MIC + PB4 0.2 µM, 48 h): 141.1%; Percentage of cell growth, antibiotic + PB4 0.2 µM ([3]; antibiotic at sub-MIC + PB4 0.2 µM, 24 h): 132.4%; Percentage of cell growth, antibiotic + PB4 0.2 µM ([3]; antibiotic at sub-MIC + PB4 0.2 µM, 48 h): 99.2%; MIC (S. aureus ATCC 29213 [4]; [15]): 0.5 µg/mL (≈ 1.05 µM); MIC (E. coli ATCC 25922 [5]; ATCC25922, quality control strain, technical positive control, read-out: MIC (quality control)): 0.5 µg/mL (≈ 1.05 µM); Reduction of antibiotic MIC by PB4 ([6]; K. pneumoniae ATCC 700603, antibiotic + PB4 vs antibiotic alone): 2 -fold log MIC reductions; MIC CLSI Range (P. aeruginosa ATCC 27853 [11]): 0.5 to 2 µg/mL; Reduction of antibiotic MIC by PB4 (E. faecalis ATCC 29212 [7]; E. faecalis ATCC 29212, antibiotic + PB4 vs antibiotic alone): 2 -fold log reduction; MIC (E. faecalis ATCC 29212 [7]; [15]): 8 µg/mL (≈ 16.8 µM)
C[C@@H](O)[C@H]1C(=O)N2C(C(=O)O)=C(SCCN=CN)C[C@H]12 [IMI, imipenem, reference compound] |  | 0.06 µg/mL (≈ 0.2 µM) | 0.06 µg/mL (≈ 0.2 µM) |  | 0.25 µg/mL (≈ 0.835 µM) |  |  |  |  | 0.06 µg/mL (≈ 0.2 µM) | 0.03 µg/mL (≈ 0.1 µM) |  | MIC reduction in combination with PB4 (all tested strains): no significant MIC reductions
